One data set addresses T1, SENP1 (Homo sapiens, UniProt Q9P0U3).
T1 construct: Human recombinant, His6-SENP1 Catalytic Domain; His6 (N); purchased Boston Biochem (Bio-Techne AG) E-700
T1 sequence (Q9P0U3 450-613 limits assumed): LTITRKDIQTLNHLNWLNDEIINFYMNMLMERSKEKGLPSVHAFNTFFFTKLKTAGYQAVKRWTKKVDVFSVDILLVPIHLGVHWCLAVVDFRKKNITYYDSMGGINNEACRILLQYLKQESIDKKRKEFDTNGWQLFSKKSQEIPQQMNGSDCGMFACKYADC
Description: Fluorogenic SENP1 assay, SUMO1-AMC substrate. The conditions noted are these: for LE (ligand efficiency): calculated: 1.4(-logIC50)/N; for reduced inhibition by a factor: compared to hit compound 11. The data set is classed as biochemical. How it is done:
Human recombinant, His6-SENP1 Catalytic Domain (Boston Biochem Cat# E-700, Bio-Techne AG, Zug, Switzerland) was prepared in reaction buffer (50 mM HEPES, 150 mM NaCl, 0.5 mM EDTA, 1 mM DTT, pH 7.5, 0.01% CHAPS). To this solution, a 20 mM or 50 mM inhibitor stock solution in DMSO was added and the mixture was incubated for 15 min at ambient temperature. […] The slope was calculated using Excel and the curve fits were performed using GraphPad Prism7 with a four-parameter least-squares fit. The final reaction conditions contained 0.02 nM SENP1 and 300 nM SUMO1/2 or 3-AMC).

[1] abbreviates: screening library samples, SUMO1-AMC, read-out: IC50 SENP1 of hit molecules.
[2] abbreviates: SUMO1-AMC 300 nM, 0.02 nM SENP1, interval in parentheses, read-out: IC50 SENP1.

Where two headings read alike, the source gives them in different places.

A word on the IC50: it is the concentration that inhibits the measured activity by half. Consider `Cc1c(C(=O)N2CCC(C)CC2)nnn1-c1cccc2c1CCN(Cc1ccccc1)C2` [Compound 12], for which the IC50 on SENP1 (setting [1]) came out at 27 µM.
On the same count and under the same terms, the same measure for `CC1CCn2cc(C(=O)NC3CCn4cc(-c5ccc(F)cc5F)nc4C3)nc2C1` (stereo not shown) [Compound 13]: 28 µM.
In general, melting point refers to the temperature, or range, at which the solid turns liquid. Turning to `O=C1Nc2ccccc2NC12CCCC2` [Compound 15, 3′,4′-Dihydro-1′H-spiro[cyclopentane-1,2′-quinoxalin]-3′-one], the melting point is 174 °C. Moreover, the concentration for half-maximal inhibition (IC50) at SENP1 (setting [2]) amounted to 116 µM. Further, the “LE (ligand efficiency)” value at SENP1 was 0.37.
The inhibition is the change of the read-out against control, counted positive when it falls. A low value points to a weak effect. In turn, `CC1(C)Nc2ccccc2NC1=O` [Compound 16, 3,3-Dimethyl-1,2,3,4-tetrahydroquinoxalin-2-one] displayed a melting point of 178 °C. In addition, the inhibition at 500 µM against SENP1 is around 50%. Further, the IC50 at SENP1 (setting [2]) is above 500 µM.
As for `CC1(C)C(=O)Nc2ccccc2N1C(=O)Cn1nnc(-c2ccccc2)n1` [Compound 23, 3,3-Dimethyl-4-[2-(5-phenyl-2H-1,2,3,4-tetrazol-2-yl)acetyl]-1,2,3,4-tetrahydroquinoxalin-2-one], the melting point is 252 °C (dec.). For the same compound, the IC50 on SENP1 (setting [2]) was determined as 12.3 µM. Also, on SENP1, the “reduced inhibition by a factor” value was determined as 1.5.
On the same counts, the results for `O=C1CN(C(=O)Cn2nnc(-c3ccccc3)n2)c2ccccc2N1` [Compound 24, 4-[2-(5-Phenyl-2H-1,2,3,4-tetrazol-2-yl)acetyl]-1,2,3,4-tetrahydroquinoxalin-2-one] are 231 °C (dec.), 77.6 µM and 10.
Take `O=C1CNc2ccccc2N1` [Compound 25, 1,2,3,4-tetrahydroquinoxalin-2-one]: on SENP1 (setting [2]), the IC50 is above 500 µM.
For the compound `O=C1Nc2ccccc2OC12CCCC2` [Compound 26, 3,4-Dihydrospiro [1,4-benzoxazine-2,1′-cyclopentan]-3-one], the melting point lay in the range of 157 to 162 °C. Moreover, the IC50 on SENP1 (setting [2]) was determined as 78 µM. The “LE (ligand efficiency)” value at SENP1 was 0.38.
On the same counts, the results for `O=C1Nc2ccccc2NC12CCCCC2` [Compound 27, 3′,4′-Dihydro-1′H-spiro[cyclohexane-1,2′-quinoxalin]-3′-one] are 230 to 234 °C (dec.), 261 µM and 0.31.
For the compound `O=C1Nc2ccccc2NC12CCCCCCC2` [Compound 28, 3′,4′-Dihydro-1′H-spiro[cyclooctane-1,2′-quinoxalin]-3′-one], the IC50 at SENP1 (setting [2]) came to 51 µM. In addition, the “LE (ligand efficiency)” value on SENP1 is 0.33.
The corresponding values for `O=C1Nc2ccccc2NC12CCC2` [Compound 29, 3′,4’-Dihydro-1′H-spiro[cyclobutane-1,2′-quinoxalin]-3′-one] are 66 µM and 0.42.
With `O=C1Nc2ccccc2NC12COC2` [Compound 30, 3′,4′-Dihydro-1′H-spiro[oxetane-3,2′-quinoxalin]-3′-one], the melting point was 165 to 170 °C (dec.). Further, the IC50 at SENP1 (setting [2]) is 81 µM. The “LE (ligand efficiency)” value at SENP1 is reported as 0.41.
The corresponding values for `O=C1Nc2ccccc2NC12CCOCC2` [Compound 31, 3′,4′-Dihydro-1′H-spiro[oxane-4,2′-quinoxalin]-3′-one] are 211 to 226 °C (dec.), 233 µM and 0.32.
As for `O=C1NC2(CCCC2)Nc2ccccc21` [Compound 32, 3′,4′-Dihydro-1′H-spiro[cyclopentane-1,2′-quinazolin]-4′-one], the melting point was 233 to 238 °C (dec.).
In turn, `c1ccc2c(c1)NCC1(CCCC1)N2` [Compound 33, 3′,4′-Dihydro-1′H-spiro[cyclopentane-1,2′-quinoxaline]] came in with a melting point of 80 to 82 °C. The IC50 at SENP1 (setting [2]) is above 500 µM.
For the compound `O=C1Nc2ncccc2NC12CCCC2` [Compound 34, 3′,4′-Dihydro-1′H-spiro[cyclopentane-1,2′-pyrido [2,3-b]pyrazin]-3′-one], the IC50 at SENP1 (setting [2]) is above 500 µM. For the same compound, the “SENP1 activity in words” value on SENP1 (up to 500 µM) is listed as “complete loss of activity”.
Consider `O=C1Nc2cscc2NC12CCCC2` [Compound 35, 3′,4′-Dihydro-1′H-spiro[cyclopentane-1,2′-thieno [3,4-b]pyrazin]-3′-one], for which the melting point was 126 to 130 °C (dec.). Further, the half-inhibitory concentration (IC50) at SENP1 (setting [2]) turned out to be 37 µM. Also, the “LE (ligand efficiency)” value on SENP1 is 0.44.
With `O=C1Nc2cscc2NC12CCCCC2` [Compound 36, 3′,4′-Dihydro-1′H-spiro[cyclohexane-1,2′-thieno [3,4-b]pyrazin]-3′-one], the half-maximal inhibitory concentration (IC50) at SENP1 (setting [2]) was determined as 61 µM. For the same compound, the “LE (ligand efficiency)” value at SENP1 is 0.39.
`COc1cccc2c1NC(=O)C1(CCCC1)N2` [Compound 37, 5′-Methoxy-3′,4′-dihydro-1′H-spiro[cyclopentane-1,2′-quinoxalin]-3′-one] returned a melting point of 176 to 180 °C. The IC50 at SENP1 (setting [2]) came out at 110 µM. The “LE (ligand efficiency)” value at SENP1 was 0.34.
On the same counts, the results for `COC(=O)c1cccc2c1NC(=O)C1(CCCC1)N2` [Compound 38, Methyl 3′-oxo-3′,4′-dihydro-1′H-spiro[cyclopentane-1,2′-quinoxaline]-5′-carboxylate] are 147 to 149 °C, 61 µM and 0.33.
The corresponding values for `COc1ccc2c(c1)NC1(CCCC1)C(=O)N2` [Compound 39, 7′-Methoxy-3′,4′-dihydro-1′H-spiro[cyclopentane-1,2′-quinoxalin]-3′-one] are 224 to 227 °C (dec.), 198 µM and 0.32.
On the same counts, the results for `COC(=O)c1ccc2c(c1)NC(=O)C1(CCCC1)N2` [Compound 40, Methyl 3′-oxo-3′,4′-dihydro-1′H-spiro[cyclopentane-1,2′-quinoxaline]-6′-carboxylate] are 246 to 250 °C (dec.), 202 µM and 0.28.
`O=C1Nc2cc([N+](=O)[O-])ccc2NC12CCCC2` [Compound 41, 6′-Nitro-3′,4′-dihydro-1′H-spiro[cyclopentane-1,2′-quinoxalin]-3′-one] returned a melting point of 275 to 278 °C. The IC50 at SENP1 (setting [2]) came out at 67 µM. In addition, at SENP1, the “LE (ligand efficiency)” value is 0.34.
Consider `O=C(Cn1cc(-c2ccccc2)nn1)N1c2ccccc2NC(=O)C12CCCC2` [Compound 44, 1′-[2-(4-Phenyl-1H-1,2,3-triazol-1-yl)acetyl]-3′,4′-dihydro-1′H-spiro[cyclopentane-1,2′-quinoxalin]-3′-one], for which the melting point is 256 °C (dec.). Also, at SENP1 (setting [2]), the concentration for half-maximal inhibition (IC50) is 23 µM.
Regarding `O=C(Cn1cc(C2CCCCC2)nn1)N1c2ccccc2NC(=O)C12CCCC2` [Compound 45, 1′-[2-(4-Cyclohexyl-1H-1,2,3-triazol-1-yl)acetyl]-3′,4′-dihydro-1′H-spiro[cyclopentane-1,2′-quinoxalin]-3′-one], the melting point was 205 °C (dec.). Moreover, the IC50 on SENP1 (setting [2]) is 19 µM.
On the same counts, the results for `O=C(Cn1cc(Cc2ccccc2)nn1)N1c2ccccc2NC(=O)C12CCCC2` [Compound 46, 1′-[2-(4-Benzyl-1H-1,2,3-triazol-1-yl)acetyl]-3′,4′-dihydro-1′H-spiro[cyclopentane-1,2′-quinoxalin]-3′-one] are 203 °C (dec.) and 38 µM.
Turning to `O=C(O)c1cccc(-c2cn(CC(=O)N3c4ccccc4NC(=O)C34CCCC4)nn2)c1` [Compound 47, 3-[1-(2-Oxo-2-{3′-oxo-3′,4′-dihydro-1′H-spiro[cyclopentane-1,2′-quinoxalin]-1′-yl}ethyl)-1H-1,2,3-triazol-4-yl]benzoic acid], the melting point is 272 °C (dec.). In addition, the IC50 at SENP1 (setting [2]) is 29 µM.
`O=C(Cn1cc(C2CC2)nn1)N1c2ccccc2NC(=O)C12CCCC2` [Compound 51, 1′-[2-(4-Cyclopropyl-1H-1,2,3-triazol-1-yl)acetyl]-3′,4′-dihydro-1′H-spiro[cyclopentane-1,2′-quinoxalin]-3′-one]: the IC50 at SENP1 (setting [2]) is above 200 µM.
The same measure, in the same setting: the value for `COCCc1cn(CC(=O)N2c3ccccc3NC(=O)C23CCCC3)nn1` [Compound 53, 1′-{2-[4-(2-Methoxyethyl)-1H-1,2,3-triazol-1-yl]acetyl}-3′,4′-dihydro-1′H-spiro[cyclopentane-1,2′-quinoxalin]-3′-one] was above 100 µM; that for `O=C(CN1CCN(c2ccccc2)CC1)N1c2ccccc2NC(=O)C12CCCC2` [Compound S1] was 152 µM; that for `CC1(C)C(=O)Nc2ccccc2N1C(=O)CN1CCN(c2ccccc2)CC1` [Compound S2] was 101 µM.
The same measure, in the same setting: the value for `CC1(C)C(=O)Nc2ccccc2N1C(=O)COc1ccccc1` [Compound S3] was above 200 µM.
The same measure, in the same setting: the value for `CC1(C)C(=O)Nc2ccccc2N1C(=O)CN1CCc2ccccc21` [Compound S4] was 153 µM.
Turning to `CN(CC(=O)N1c2ccccc2NC(=O)C1(C)C)Cc1ccccc1` [Compound S5], at SENP1 (setting [2]), the IC50 is above 200 µM.
Still for that read-out and setting: the same measure for `CN(CC(=O)N1c2ccccc2NC(=O)C1(C)C)c1ccccc1` [Compound S6]: above 200 µM.
Same read-out and setting: the value for `COc1ccc(N(C)CC(=O)N2c3ccccc3NC(=O)C2(C)C)cc1` [Compound S7] was above 200 µM.
